Patent publication US20260114452A1, “ADDITIVES FOR COLOR DRIFT REDUCTION IN COPPER-BASED ANTIMICROBIAL POLYMERIC FORMULATIONS” (CORNING INCORPORATED, priority 2021, published 2026)
Where a name gives a salt, the structure may show the parent alone.

Columns and labels:
[1] = Color drift of paint dosed with copper-containing material and copper-coordinating additive (CIE a* before/after peroxide); format: physicochemical; details: for a* drift (total drift in color, gap between paint color before and after peroxide testing) / a* endpoint: FIG. 1, Control B paint, Cu:phosphate dibasic 1:0.3 and 1:0.6, other additives 1:0.5 and 1:1; for a* endpoint: after peroxide; for drift in color: FIG. 3, additive neutralized to pH 7 before copper-containing material, 1:1.5 and 1:3 molar ratios; for color drift: 1:1 and 1:3 molar ratios; for color drift / color shift to endpoint / color drift: additive neutralized to pH 7; for color shift to endpoint / color drift: FIG. 10
bacteria = experiment: Antimicrobial efficacy (logarithmic reduction) of paint samples with copper-containing material and copper-coordinating additive; format: cell-based; details: FIG. 12; 50 g of 1:3 molar ratio mixture per gallon of control paint
Description: As used herein, the term “logarithmic reduction” means the negative value of log (Ca/C0), where Ca refers to the colony form unit (“CFU”) number of the antimicrobial surface and C0 refers to the CFU of the control surface that is not an antimicrobial surface. As an example, a 3 logarithmic reduction equals about 99.9% of the microbes killed and a logarithmic reduction of 5 equals about 99.999% of microbes killed. The logarithmic reduction value may be measured according to the ASTM D2574-16 (2016) “Standard Test Method for Resistance of Emulsion Paints in the Container to Attack by Microorganisms.”
The effectiveness of a composition of the present disclosure as a biocidal composition may be measured as a function of the composition's logarithmic reduction. The composition's logarithmic reduction value may be relevant to its ability to kill a wide variety of biological organisms to which the composition is exposed, but may also allow the copper-containing material to act as a preservative for the composition during storage (e.g., in a container such as, but not limited to a tank, a can, a bucket, a drum, a bottle, or a tube). […]

[2] = FIG. 5, Control N paint, 50 g/gallon

Molecule	a* drift (total drift in color, gap between paint color before and after peroxide testing) ([1]; 50 g/gallon)	a* endpoint ([1]; 50 g/gallon)	color shift to endpoint / color drift ([1]; 1:3 molar ratio, 50 g/gallon)	also measured
Cl.NO [hydroxylamine hydrochloride]	~0	did not change the endpoint a*	–	drift in color ([1]; 50 g/gallon): reduced significantly; color drift [1, 2]: minimized color drift by accelerating to endpoint quickly; effect on a* / color endpoint (summary of data) ([1]; control paint samples, summary): accelerated color endpoints and reduced color shifts by starting with more negative a* values
CCON [ethoxyamine hydrochloride]	–	–	accelerated color shift to endpoint, minimizing color drift	impact on antimicrobial efficacy (bacteria): minimal impact on antimicrobial efficacy
CCCCC(CC)COP(=O)(O)O (centres unmarked) [2EHP, 2-ethylhexylphosphate]	−0.25 to −1	−0.5 to −1	–	drift in color ([1]; 50 g/gallon): reduced significantly; color drift [1, 2]: did not minimize drift; color drift, 1:3 molar ratio relative to 1:1 molar ratio [1, 2]: some reduction in drift
COP(=O)(O)O [methyl phosphate]	–	–	accelerated color shift to endpoint, minimizing color drift	impact on antimicrobial efficacy (bacteria): minimal impact on antimicrobial efficacy
O=P(O)(O)Oc1ccccc1 [phenyl phosphate]	–	–	–	color shift to endpoint ([1]; FIG. 13, 1:3 molar ratio, 50 g/gallon): all copper-coordinating additives except for phenyl phosphate accelerated color shift to endpoint
phosphate dibasic	−1.75	~−1.5	–	–
COP(=O)(OC)OC [trimethyl phosphate]	–	–	accelerated color shift to endpoint, minimizing color drift	–
NC(N)=O [urea]	~−1	did not change the endpoint a*	–	–
